The text below walks through data of US11679100B2, “Methods of enhancing immunity” (The Regents of the University of California, priority 2018, dated 2023).

The test system of the experiment is bone marrow derived murine macrophages. Description: mRNA/miRNA expression in LA1-treated macrophages. Format: cell-based. The procedure:
Murine macrophage differentiation and culture-Bone marrow derived cells (BMDC) were aseptically harvested from 6-8 week-old female mice by flushing leg bones of euthanized mice with phosphate buffered saline (PBS), 0.5% BSA, 2 mM EDTA, incubating in red cell lysis buffer (155 mM NH4Cl, 10 mM NaHCO3 and 0.1 mM EDTA) and centrifuging over Histopaque 1083 to purify the mononuclear cells. Approximately 5×10^7 BMDC were purified by gradient centrifugation from the femurs and tibias of a single mouse. Purified mononuclear cells were cultured in RPMI+20% serum+50 ng/ml M-CSF (PeproTech). Macrophage Polarization-Bone marrow derived macrophages were polarized with either IFNγ (20 ng/ml, Peprotech) plus LPS (100 ng/ml, Sigma) or LPS alone for 24 h or IL-4 (20 ng/ml, Peprotech) for 24-48 h. In some cases, macrophages were incubated with inhibitors of Stat3 ([…]) or cMyc (10058-F4, Selleck). […] Secreted protein was measured in culture supernatants by ELISA assays. […] Sybr green-based qPCR was performed using primers to murine Gapdh (Mm_Gapdh_1_SG), Arg1 (Mm_[…]_SG_QT00134288) Tgfb (Mm_Tgfb_1_SG Qiagen QT00145250), […] (Mm_Il10_1_SG Qiagen QT00106169), Il6 (Mm_Il6_1_SG Qiagen QT00098875), Nos2 (Mm_Nos2_1_SG Qiagen QT00100275), Il12b (Mm_Il12b_1_SG Qiagen QT00153643), Ifng (Mm_Ifng 1_SG Qiagen QT01038821), Il1b (Mm_Il1b_2_SG Qiagen QT01048355), Tnfa (Mm_Tnfa_1_SG Qiagen QT00104006), Vegfa (Mm_Vegfa_1_SG Qiagen QT00160769), Pdgfb (Mm_Pdgfb_1_SG Qiagen QT00266910) and human GAPDH (Hs_GAPDH_1_SG Qiagen QT00079247), ARG1 (Hs_Arginase_1_SG Qiagen QT00068446, IL6 (Hs_Il6_1_SG Qiagen QT00083720), NOS2 (Hs_NOS2_1_SG Qiagen QT00068740), IL12B (Hs_IL12B_1_SG Qiagen QT00000364), and PDGFB (Hs_PDGFB_1_SG Qiagen QT00001260) (Qiagen QuantiTect Primer Assay). mRNA levels were normalized to Gapdh or GAPDH (ΔCt=Ct gene of interest-Ct Gapdh) and reported as relative mRNA expression (ΔΔCt=2^-(ΔCt sample-ΔCt control)) or fold change. […]

`O=C(O)c1ccc(-c2ccc(/C=C3\SC(=S)N(Cc4ccccc4)C3=O)o2)cc1` [LA1, leukadherin 1]: the “expression of Il1b, Tnfa, Il12, Nos2 and Ifng mRNAs” value (IFNγ+LPS stimulated bone marrow derived murine macrophages) is “increases in expression of Il1b, Tnfa, Il12, Nos2 and Ifng mRNAs”. In addition, for the setting “macrophages”, the Let7a expression result is “stimulated Let7a expression”; the “Pdgfb and Il6 expression” value was “inhibited Pdgfb and Il6 expression”.
